According to ChEMBL document CHEMBL4665840, “New antibacterial cadiolide analogues active against antibiotic-resistant strains” (Bioorg Med Chem Lett, 2020):
≈ marks a conversion by molar mass, not a printed value.

How the values were obtained:
Enterococcus faecalis [1] = experiment: Antibacterial activity against vancomycin-resistant Enterococcus faecalis; format: functional
Bacillus subtilis = experiment: Antibacterial activity against Bacillus subtilis; format: functional
Staphylococcus aureus [2] = experiment: Antibacterial activity against Staphylococcus aureus NCTC12493
HaCaT [3] = experiment: Cytotoxicity against human HaCaT cells at 160 ug/ml incubated for 24 hrs by LDH release assay; format: cell-based; settings: dose 160 µg/ml
Staphylococcus aureus [4] = experiment: Antibacterial activity against Staphylococcus aureus EMRSA17; format: functional
Bacillus cereus = experiment: Antibacterial activity against Bacillus cereus; format: functional
Enterococcus faecalis [5] = experiment: Antibacterial activity against Enterococcus faecalis NCTC12697; format: functional
Micrococcus luteus = experiment: Antibacterial activity against Micrococcus luteus; format: functional
HaCaT [6] = experiment: Cytotoxicity against human HaCaT cells at 160 ug/ml incubated for 24 hrs by LDH release assay (reference value: 23.7 +/- 1.4%); format: cell-based; settings: at 160 µg/mL

| Molecule | MIC (Enterococcus faecalis [1]) [µg/mL] | MIC (Bacillus subtilis) [µg/mL] | MIC (Staphylococcus aureus [2]) [µg/mL] | Activity (HaCaT [3]) | MIC (Staphylococcus aureus [4]) [µg/mL] | MIC (Bacillus cereus) [µg/mL] | MIC (Enterococcus faecalis [5]) [µg/mL] | MIC (Micrococcus luteus) [µg/mL] | Activity (HaCaT [6]) [%] |
| --- | --- | --- | --- | --- | --- | --- | --- | --- | --- |
| O=C1O/C(=C\c2ccc(O)c(Br)c2)C(c2ccc(O)c(Br)c2)=C1C(=O)c1ccc(O)c(Br)c1 | 32 (≈ 50.2 µM) | 16 (≈ 25.1 µM) | 8 (≈ 12.6 µM) | Non-Toxic | 8 (≈ 12.6 µM) | 8 (≈ 12.6 µM) | 16 (≈ 25.1 µM) | 8 (≈ 12.6 µM) |  |
| CCCN1C(=O)C(C(=O)c2ccco2)=C(c2ccc(O)c(Br)c2)C1=Cc1ccc(O)c(Br)c1 (mixture of isomers) | 16 | 8 | 8 |  | 16 | 4 | 16 | 16 | 55.7 |
| CN[C@H](CC(C)C)C(=O)N[C@H]1C(=O)N[C@@H](CC(N)=O)C(=O)N[C@H]2C(=O)N[C@H]3C(=O)N[C@H](C(=O)N[C@H](C(=O)O)c4cc(O)cc(O)c4-c4cc3ccc4O)[C@H](O)c3ccc(c(Cl)c3)Oc3cc2cc(c3O[C@@H]2O[C@H](CO)[C@@H](O)[C@H](O)[C@H]2O[C@H]2C[C@](C)(N)[C@H](O)[C@H](C)O2)Oc2ccc(cc2Cl)[C@H]1O [VANCOMYCIN] | > 64 | 0.5 (≈ 0.345 µM) |  |  |  |  |  | ≤ 0.13 |  |
| O=C1O/C(=C\c2ccco2)C(c2ccco2)=C1C(=O)c1cc(Br)c(O)c(Br)c1 | 64 (≈ 126 µM) | 32 (≈ 63.2 µM) | 16 (≈ 31.6 µM) |  | 64 (≈ 126 µM) | 16 (≈ 31.6 µM) | 64 (≈ 126 µM) | 32 (≈ 63.2 µM) |  |
| O=C1O/C(=C\c2ccc(O)c(Br)c2)C(c2cc(Br)c(O)c(Br)c2)=C1C(=O)c1cc(Br)c(O)c(Br)c1 [CADIOLIDE D] | 64 (≈ 80.5 µM) | 64 (≈ 80.5 µM) | 32 (≈ 40.3 µM) |  | 64 (≈ 80.5 µM) | 32 (≈ 40.3 µM) | 64 (≈ 80.5 µM) | 64 (≈ 80.5 µM) |  |
| GENTAMICIN | 8 | 0.25 |  |  | > 64 | 0.25 | 8 | 0.25 |  |
| Cn1cc(/C=C2\OC(=O)C(C(=O)c3ccc(O)c(Br)c3)=C2c2ccc(O)c(Br)c2)c2ccccc21 | 8 (≈ 13.4 µM) | 4 (≈ 6.72 µM) | 2 (≈ 3.36 µM) | Non-Toxic | 8 (≈ 13.4 µM) | 2 (≈ 3.36 µM) | 16 (≈ 26.9 µM) | 2 (≈ 3.36 µM) |  |
| O=C1O/C(=C\c2cccs2)C(c2cc(Br)c(O)c(Br)c2)=C1C(=O)c1cc(Br)c(O)c(Br)c1 | 32 (≈ 45.3 µM) | 32 (≈ 45.3 µM) | 32 (≈ 45.3 µM) |  | 256 (≈ 363 µM) | 64 (≈ 90.7 µM) | 64 (≈ 90.7 µM) | 128 (≈ 181 µM) |  |
| O=C1O/C(=C\c2cc(Br)c(O)c(Br)c2)C(c2ccco2)=C1C(=O)c1cc(Br)c(O)c(Br)c1 | 64 (≈ 92.8 µM) | 16 (≈ 23.2 µM) | 32 (≈ 46.4 µM) |  | 64 (≈ 92.8 µM) | 16 (≈ 23.2 µM) | 32 (≈ 46.4 µM) | 16 (≈ 23.2 µM) |  |
| O=C1O/C(=C\c2cc(Br)c(O)c(Br)c2)C(c2cccs2)=C1C(=O)c1cc(Br)c(O)c(Br)c1 | 8 (≈ 11.3 µM) | 8 (≈ 11.3 µM) | 16 (≈ 22.7 µM) |  | 16 (≈ 22.7 µM) | 8 (≈ 11.3 µM) | 16 (≈ 22.7 µM) | 8 (≈ 11.3 µM) |  |
| O=C1O/C(=C\c2cccs2)C(c2ccc(O)c(Br)c2)=C1C(=O)c1cc(Br)c(O)c(Br)c1 | 32 (≈ 51 µM) | 4 (≈ 6.38 µM) | 8 (≈ 12.8 µM) |  | 32 (≈ 51 µM) | 8 (≈ 12.8 µM) | 32 (≈ 51 µM) | 32 (≈ 51 µM) |  |
| O=C1O/C(=C\c2cc(Br)c(O)c(Br)c2)C(c2cc(Br)c(O)c(Br)c2)=C1C(=O)c1ccco1 | 64 (≈ 92.8 µM) | 32 (≈ 46.4 µM) | 32 (≈ 46.4 µM) |  | 64 (≈ 92.8 µM) | 16 (≈ 23.2 µM) | 128 (≈ 186 µM) | 32 (≈ 46.4 µM) |  |
| O=C1O/C(=C\c2ccco2)C(c2ccc(O)c(Br)c2)=C1C(=O)c1ccc(O)c(Br)c1 | 128 (≈ 241 µM) | 32 (≈ 60.1 µM) | 32 (≈ 60.1 µM) |  | 64 (≈ 120 µM) | 32 (≈ 60.1 µM) | 128 (≈ 241 µM) | 32 (≈ 60.1 µM) |  |
| O=C1O/C(=C\c2ccc(O)c(Br)c2)C(c2ccc(O)c(Br)c2)=C1C(=O)c1cccs1 | 32 (≈ 58.4 µM) | 8 (≈ 14.6 µM) | 8 (≈ 14.6 µM) |  | 16 (≈ 29.2 µM) | 4 (≈ 7.3 µM) | 32 (≈ 58.4 µM) | 8 (≈ 14.6 µM) |  |
| O=C1O/C(=C\c2ccco2)C(c2cc(Br)c(O)c(Br)c2)=C1C(=O)c1ccco1 | 256 (≈ 506 µM) | 256 (≈ 506 µM) | 64 (≈ 126 µM) |  | 128 (≈ 253 µM) | 128 (≈ 253 µM) | 256 (≈ 506 µM) | 256 (≈ 506 µM) |  |
| O=C1O/C(=C\c2c[nH]c3ccccc23)C(c2ccc(O)c(Br)c2)=C1C(=O)c1ccc(O)c(Br)c1 | 8 (≈ 13.8 µM) | 8 (≈ 13.8 µM) | 2 (≈ 3.44 µM) | Non-Toxic | 4 (≈ 6.88 µM) | 4 (≈ 6.88 µM) | 8 (≈ 13.8 µM) | 8 (≈ 13.8 µM) |  |
